In patent US20240199623A1 (ILDONG PHARMACEUTICAL CO., LTD., priority 2020, published 2024):

Molecular target: human wild type-CFTR (Homo sapiens, UniProt P13569)
Assay: Cell-based YFP assay
Design: expressed in transfected cells; host or cells: CHO-K1 (Chinese hamster ovary)
Settings: CHO-K1 cells expressing human wild type-CFTR and YFP-H148Q/I152L; forskolin 20 μM = 100% activity; read-out: Cell-based YFP Assay (EC50) Concentration Range
Outline: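 I⁻-driven YFP fluorescence quenching at 37 °C: 2 s baseline, addition of 140 mM iodide solution, then 14 s of readings at 0.4 s intervals. Cells were CHO-K1 expressing human wild-type CFTR plus YFP-H148Q/I152L. EC50 derived from averaged triplicates.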

human wild type-CFTR, sequence (P13569 whole entry): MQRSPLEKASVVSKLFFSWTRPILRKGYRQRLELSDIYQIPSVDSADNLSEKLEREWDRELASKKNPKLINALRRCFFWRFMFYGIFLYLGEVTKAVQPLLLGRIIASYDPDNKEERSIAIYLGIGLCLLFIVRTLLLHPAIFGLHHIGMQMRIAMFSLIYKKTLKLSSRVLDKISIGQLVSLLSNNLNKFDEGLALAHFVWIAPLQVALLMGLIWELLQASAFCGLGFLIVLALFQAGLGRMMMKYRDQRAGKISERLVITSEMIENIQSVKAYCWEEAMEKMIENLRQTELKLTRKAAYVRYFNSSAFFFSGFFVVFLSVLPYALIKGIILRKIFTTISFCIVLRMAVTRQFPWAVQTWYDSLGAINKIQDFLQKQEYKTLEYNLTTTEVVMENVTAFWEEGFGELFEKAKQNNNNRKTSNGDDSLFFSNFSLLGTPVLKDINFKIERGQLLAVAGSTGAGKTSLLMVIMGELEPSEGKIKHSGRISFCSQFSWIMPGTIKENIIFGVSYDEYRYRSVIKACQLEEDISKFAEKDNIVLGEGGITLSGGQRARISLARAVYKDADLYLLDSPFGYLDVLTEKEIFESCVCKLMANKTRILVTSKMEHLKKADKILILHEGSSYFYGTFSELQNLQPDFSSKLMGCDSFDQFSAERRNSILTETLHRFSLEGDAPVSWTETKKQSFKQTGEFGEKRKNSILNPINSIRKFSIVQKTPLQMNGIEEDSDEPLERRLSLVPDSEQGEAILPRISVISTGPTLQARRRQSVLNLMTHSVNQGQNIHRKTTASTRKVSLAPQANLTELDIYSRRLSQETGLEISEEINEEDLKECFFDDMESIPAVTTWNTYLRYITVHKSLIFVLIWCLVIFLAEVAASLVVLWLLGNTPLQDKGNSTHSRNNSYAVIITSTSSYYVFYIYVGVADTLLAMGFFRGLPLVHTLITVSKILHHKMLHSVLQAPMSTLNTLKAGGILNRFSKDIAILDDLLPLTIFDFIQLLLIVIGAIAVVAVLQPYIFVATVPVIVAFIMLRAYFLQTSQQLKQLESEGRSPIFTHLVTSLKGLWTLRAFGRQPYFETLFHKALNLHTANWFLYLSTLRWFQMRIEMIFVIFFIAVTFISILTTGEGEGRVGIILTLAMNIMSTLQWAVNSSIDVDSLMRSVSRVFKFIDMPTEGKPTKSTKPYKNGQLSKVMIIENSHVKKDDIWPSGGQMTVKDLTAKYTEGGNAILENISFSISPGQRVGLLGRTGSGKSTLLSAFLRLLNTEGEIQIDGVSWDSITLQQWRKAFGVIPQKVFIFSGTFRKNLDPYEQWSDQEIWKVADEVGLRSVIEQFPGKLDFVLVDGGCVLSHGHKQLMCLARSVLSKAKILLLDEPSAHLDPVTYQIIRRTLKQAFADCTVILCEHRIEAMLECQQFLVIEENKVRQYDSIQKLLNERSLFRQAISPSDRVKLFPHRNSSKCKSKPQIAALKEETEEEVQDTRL

EC50 [nM] | Compound
≥ 2000 | COc1ccc(-c2ccnc3cc(C(=O)Nc4ccc(C(=O)NCCCN(C)C)cc4)nn23)cc1OC [Compound 220, 7-(3,4-dimethoxyphenyl)-N-(4-((3-(dimethylamino)propyl)carbamoyl)phenyl) pyrazolo[1,5-a]pyrimidine-2-carboxamide]
≥ 2000 | CCN(CC)CCNC(=O)c1ccc(NC(=O)c2cc3nccc(-c4ccc(OC)c(OC)c4)n3n2)cc1 [Compound 221, N-(4-((2-(diethylamino)ethyl)carbamoyl)phenyl)-7-(3,4-dimethoxyphenyl)pyrazolo [1,5-a]pyrimidine-2-carboxamide]
≥ 2000 | CCN(CC)CCCNC(=O)c1ccc(NC(=O)c2cc3nccc(-c4ccc(OC)c(OC)c4)n3n2)cc1 [Compound 222, N-(4-((3-(diethylamino)propyl)carbamoyl)phenyl)-7-(3,4-dimethoxyphenyl) pyrazolo[1,5-a]pyrimidine-2-carboxamide]
≥ 2000 | COc1ccc(-c2ccnc3cc(C(=O)Nc4ccc(C(=O)NCCN5CCCC5)cc4)nn23)cc1OC [Compound 223, 7-(3,4-dimethoxyphenyl)-N-(4-((2-(pyrrolidin-1-yl)ethyl)carbamoyl)phenyl)pyrazolo[1,5-a]pyrimidine-2-carboxamide]
≥ 2000 | COc1ccc(-c2ccnc3cc(C(=O)Nc4ccc(C(=O)NCCCN5CCCC5)cc4)nn23)cc1OC [Compound 224, 7-(3,4-dimethoxyphenyl)-N-(4-((3-(pyrrolidin-1-yl)propyl)carbamoyl)phenyl)pyrazolo[1,5-a]pyrimidine-2-carboxamide]
≥ 2000 | COc1ccc(-c2ccnc3cc(C(=O)Nc4ccc(C(=O)OCCN5CCCC5)cc4)nn23)cc1OC [Compound 225, 2-(pyrrolidin-1-yl)ethyl 4-(7-(3,4-dimethoxyphenyl)pyrazolo [1,5-a]pyrimidine-2-carboxamido)benzoate]
≥ 2000 | COc1ccc(-c2ccnc3cc(C(=O)Nc4ccc(C(=O)OCCCN5CCCC5)cc4)nn23)cc1OC [Compound 226, 3-(pyrrolidin-1-yl)propyl 4-(7-(3,4-dimethoxyphenyl)pyrazolo [1,5-a]pyrimidine-2-carboxamido)benzoate]

Second part, the compound before the results:

Compound | EC50 [nM]
COc1ccc(-c2ccnc3cc(C(=O)N[C@H]4CC[C@@H](C(=O)OCCCN5CCOCC5)CC4)nn23)cc1OC [Compound 196, 3-morpholinopropyl (1s,4s)-4-(7-(3,4-dimethoxyphenyl)pyrazolo [1,5-a]pyrimidine-2-carboxamido)cyclohexane-1-carboxylate] | 200 to 2000
COc1ccc(-c2ccnc3cc(C(=O)NC45CC(C(=O)OCCCN6CCOCC6)(C4)C5)nn23)cc1OC [Compound 199, 3-morpholinopropyl 3-(7-(3,4-dimethoxyphenyl)pyrazolo [1,5-a]pyrimidine-2-carboxamido)bicyclo[1.1.1] pentane-1-carboxylate] | 200 to 2000
COc1ccc(-c2ccnc3cc(C(=O)N[C@H]4CC[C@H](C(=O)NCCN5CCOCC5)CC4)nn23)cc1OC [Compound 202, 7-(3,4-dimethoxyphenyl)-N-((1r,4r)-4-((2-morpholinoethyl)carbamoyl)cyclohexyl)pyrazolo [1,5-a]pyrimidine-2-carboxamide] | ≥ 2000
COc1ccc(-c2ccnc3cc(C(=O)N[C@H]4CC[C@H](C(=O)NCCCN5CCOCC5)CC4)nn23)cc1OC [Compound 203, 7-(3,4-dimethoxyphenyl)-N-((1r,4r)-4-((3-morpholinopropyl)carbamoyl)cyclohexyl) pyrazolo[1,5-a]pyrimidine-2-carboxamide] | ≥ 2000
COc1ccc(-c2ccnc3cc(C(=O)N4CCN(Cc5ccccc5)[C@@H](C)C4)nn23)cc1OC [Compound 206, (S)-(4-benzyl-3-methylpiperazin-1-yl) (7-(3,4-dimethoxyphenyl)pyrazolo [1,5-a]pyrimidin-2-yl)methanone] | 200 to 2000
COc1ccc(-c2ccnc3cc(C(=O)N4CCN(Cc5ccccc5)C(C)(C)C4)nn23)cc1OC [Compound 207, (4-benzyl-3,3-dimethylpiperazin-1-yl)(7-(3,4-dimethoxyphenyl)pyrazolo [1,5-a]pyrimidin-2-yl)methanone] | 200 to 2000
COc1ccc(-c2ccnc3cc(C(=O)N4CCN(C)[C@@H](C)C4)nn23)cc1OC [Compound 208, (S)-(7-(3,4-dimethoxyphenyl)pyrazolo [1,5-a]pyrimidin-2-yl)(3,4-dimethylpiperazin-1-yl)methanone] | ≥ 2000
COc1ccc(-c2ccnc3cc(C(=O)N4CCN(C(=O)c5ccccc5)CC4)nn23)cc1OC [Compound 209, (4-benzoylpiperazin-1-yl)(7-(3,4-dimethoxyphenyl)pyrazolo [1,5-a]pyrimidin-2-yl)methanone] | < 200
COc1ccc(-c2ccnc3cc(C(=O)N4CCN(C(=O)c5ccccc5)C(C)(C)C4)nn23)cc1OC [Compound 211, (4-benzoyl-3,3-dimethylpiperazin-1-yl) (7-(3,4-dimethoxyphenyl)pyrazolo [1,5-a]pyrimidin-2-yl)methanone] | 200 to 2000
COc1ccc(-c2ccnc3cc(C(=O)Nc4ccc(C(=O)O)c(C)c4)nn23)cc1OC [Compound 213, 4-(7-(3,4-dimethoxyphenyl)pyrazolo[1,5-a]pyrimidine-2-carboxamido)-2-methylbenzoic acid] | ≥ 2000
COc1ccc(-c2ccnc3cc(C(=O)Nc4ccc(C(=O)N5CCOCC5)c(C)c4)nn23)cc1OC [Compound 214, 7-(3,4-dimethoxyphenyl)-N-(3-methyl-4-(morpholine-4-carbonyl)phenyl)pyrazolo[1,5-a]pyrimidine-2-carboxamide] | ≥ 2000
COc1ccc(-c2ccnc3cc(C(=O)Nc4ccc(C(=O)N5CCN(C)CC5)c(C)c4)nn23)cc1OC [Compound 215, 7-(3,4-dimethoxyphenyl)-N-(3-methyl-4-(4-methylpiperazine-1-carbonyl)phenyl)pyrazolo [1,5-a]pyrimidine-2-carboxamide] | ≥ 2000
COc1ccc(-c2ccnc3cc(C(=O)Nc4ccc(C(=O)O)c(OC)c4)nn23)cc1OC [Compound 216, 4-(7-(3,4-dimethoxyphenyl)pyrazolo[1,5-a]pyrimidine-2-carboxamido)-2-methoxybenzoic acid] | ≥ 2000
COc1ccc(-c2ccnc3cc(C(=O)Nc4ccc(C(=O)N5CCOCC5)c(OC)c4)nn23)cc1OC [Compound 217, 7-(3,4-dimethoxyphenyl)-N-(3-methoxy-4-(morpholine-4-carbonyl)phenyl)pyrazolo [1,5-a] pyrimidine-2-carboxamide] | ≥ 2000
COc1ccc(-c2ccnc3cc(C(=O)Nc4ccc(C(=O)N5CCN(C)CC5)c(OC)c4)nn23)cc1OC [Compound 218, 7-(3,4-dimethoxyphenyl)-N-(3-methoxy-4-(4-methylpiperazine-1-carbonyl)phenyl)pyrazolo [1,5-a]pyrimidine-2-carboxamide] | ≥ 2000
COc1ccc(-c2ccnc3cc(C(=O)Nc4ccc(C(=O)N(C)CCN(C)C)cc4)nn23)cc1OC [Compound 219, 7-(3,4-dimethoxyphenyl)-N-(4-((2-(dimethylamino)ethyl) (methyl)carbamoyl)phenyl)pyrazolo[1,5-a] pyrimidine-2-carboxamide] | ≥ 2000
COc1ccc(-c2ccnc3cc(C(=O)Nc4ccc(OC(=O)CNC(=O)OC(C)(C)C)cc4)nn23)cc1OC [Compound 227, 4-(7-(3,4-dimethoxyphenyl)pyrazolo[1,5-a]pyrimidine-2-carboxamido) phenyl(tert-butoxycarbonyl)glycinate] | < 200
